Our source for the IC50 values is US20260365682A1, “MODULATORS OF TNF-ALPHA ACTIVITY” (Forward Therapeutics, Inc., priority 2022, published 2026).

Some results are limits rather than exact numbers.

For this assay, the target named is T1, TNF-α (Homo sapiens, UniProt P01375).
T1 construct: purchased R&D 210-TA-020/CF
As to the kind of experiment: TNF-α Induced HEK Blue Cellular Assay (secreted alkaline phosphatase expression, QUANTI-Blue). Conditions: HEK Blue TNFα reporter cells; TNF-α 100 μg/ml; 24 hrs at 37° C.; inhibition of secreted alkaline phosphatase; read-out: IC50 value. It counts as cell-based. In a few lines:
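HEK Blue TNFα reporter cells (10,000/well) in DMEM with 10% FBS received compound ([…] to 0.5 nM final) and TNF-α at […] final for 24 h at 37° C. Secreted alkaline phosphatase read with QUANTI-Blue at 620 nm. IC50 came from a 4-parameter logistic fit after normalising to unstimulated and stimulated DMSO controls.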

T1 sequence (P01375 77-233 limits assumed): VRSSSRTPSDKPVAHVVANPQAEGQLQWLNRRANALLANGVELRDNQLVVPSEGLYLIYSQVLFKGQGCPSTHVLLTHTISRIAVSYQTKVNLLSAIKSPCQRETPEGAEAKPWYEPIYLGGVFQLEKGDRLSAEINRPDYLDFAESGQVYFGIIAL

As to `[2H]C([2H])([2H])N1C(=O)c2cccc(OC(F)F)c2[C@H]2C[C@@H]1c1nc3ccc(C#C[C@H](C)COC)cc3n12` [Example 142, (7R,14R)-1-(difluoromethoxy)-11-((S)-4-methoxy-3-methylbut-1-yn-1-yl)-6-(methyl-d3)-6,7-dihydro-7,14-methanobenzo[f]benzo[4,5]imidazo[1,2-a][1,4]diazocin-5(14H)-one], the IC50 (commonly the midpoint of a concentration-inhibition curve) was less than 100 nM. The figure for `[2H]C([2H])([2H])N1C(=O)c2cccc(OC(F)F)c2[C@H]2C[C@@H]1c1nc3ccc(C#CCCN4CC(C)(O)C4)cc3n12` [Example 143, (7R,14R)-1-(difluoromethoxy)-11-(4-(3-hydroxy-3-methylazetidin-1-yl)but-1-yn-1-yl)-6-(methyl-d3)-6,7-dihydro-7,14-methanobenzo[f]benzo[4,5]imidazo[1,2-a][1,4]diazocin-5(14H)-one] is less than 100 nM. The figure for `[2H]C([2H])([2H])N1C(=O)c2cccc(OC(F)F)c2[C@H]2C[C@@H]1c1nc3ccc(C#CCO)cc3n12` [Example 144, (7R,14R)-1-(difluoromethoxy)-11-(3-hydroxyprop-1-yn-1-yl)-6-(methyl-d3)-6,7-dihydro-7,14-methanobenzo[f]benzo[4,5]imidazo[1,2-a][1,4]diazocin-5(14H)-one] is 100 to 1000 nM; for `[2H]C([2H])([2H])N1C(=O)c2cccc(OC(F)F)c2[C@H]2C[C@@H]1c1nc3c(F)cc(C#CC4(C)COC4)cc3n12` [Example 145, (7R,14R)-1-(difluoromethoxy)-9-fluoro-6-(methyl-d3)-11-((3-methyloxetan-3-yl)ethynyl)-6,7-dihydro-7,14-methanobenzo[f]benzo[4,5]imidazo[1,2-a][1,4]diazocin-5(14H)-one] it is less than 100 nM. Take `[2H]C([2H])([2H])N1C(=O)c2cccc(OC(F)F)c2[C@H]2C[C@@H]1c1nc3ccc(C#CC4(C)COC4)c(F)c3n12` [Example 146, (7R,14R)-1-(difluoromethoxy)-12-fluoro-6-(methyl-d3)-11-((3-methyloxetan-3-yl)ethynyl)-6,7-dihydro-7,14-methanobenzo[f]benzo[4,5]imidazo[1,2-a][1,4]diazocin-5(14H)-one]: the IC50 lay within 100 to 1000 nM.

As to `[2H]C([2H])([2H])N1C(=O)c2cccc(OC(F)F)c2[C@H]2C[C@@H]1c1nc3ccc(C#C[C@@H](C)COC)cc3n12` [Example 147, (7R,14R)-1-(difluoromethoxy)-11-((R)-4-methoxy-3-methylbut-1-yn-1-yl)-6-(methyl-d3)-6,7-dihydro-7,14-methanobenzo[f]benzo[4,5]imidazo[1,2-a][1,4]diazocin-5(14H)-one], the 50% inhibitory concentration (IC50) was less than 100 nM. The figure for `[2H]C([2H])([2H])N1C(=O)c2cccc(OC(F)F)c2[C@H]2C[C@@H]1c1nc3ccc(C#CC4CC(F)(F)C4)cc3n12` [Example 150, (7R,14R)-11-((3,3-difluorocyclobutyl)ethynyl)-1-(difluoromethoxy)-6-(methyl-d3)-6,7-dihydro-7,14-methanobenzo[f]benzo[4,5]imidazo[1,2-a][1,4]diazocin-5(14H)-one] is less than 100 nM; for `[2H]C([2H])([2H])N1C(=O)c2cccc(OC(F)F)c2[C@H]2C[C@@H]1c1nc3ccc(C#CCCNC)cc3n12` [Example 151, (7R,14R)-1-(difluoromethoxy)-6-(methyl-d3)-11-(4-(methylamino)but-1-yn-1-yl)-6,7-dihydro-7,14-methanobenzo[f]benzo[4,5]imidazo[1,2-a][1,4]diazocin-5(14H)-one] it is 100 to 1000 nM. The figure for `[2H]C([2H])([2H])N1C(=O)c2cccc(OC(F)F)c2[C@H]2C[C@@H]1c1nc3ccc(C#CCCNCC)cc3n12` [Example 152, (7R,14R)-1-(difluoromethoxy)-11-(4-(ethylamino)but-1-yn-1-yl)-6-(methyl-d3)-6,7-dihydro-7,14-methanobenzo[f]benzo[4,5]imidazo[1,2-a][1,4]diazocin-5(14H)-one] is 100 to 1000 nM; for `[2H]C([2H])([2H])N1C(=O)c2cccc(OC(F)F)c2[C@H]2C[C@@H]1c1nc3ccc(C#CCCCNC)cc3n12` [Example 153, (7R,14R)-1-(difluoromethoxy)-6-(methyl-d3)-11-(5-(methylamino)pent-1-yn-1-yl)-6,7-dihydro-7,14-methanobenzo[f]benzo[4,5]imidazo[1,2-a][1,4]diazocin-5(14H)-one] it is 100 to 1000 nM; for `[2H]C([2H])([2H])N1C(=O)c2cccc(OC(F)F)c2[C@H]2C[C@@H]1c1nc3ccc(C#CCCN4CC(C)(C#N)C4)cc3n12` [Example 154, 1-(4-((7R,14R)-1-(difluoromethoxy)-6-(methyl-d3)-5-oxo-5,6,7,14-tetrahydro-7,14-methanobenzo[f]benzo[4,5]imidazo[1,2-a][1,4]diazocin-11-yl)but-3-yn-1-yl)-3-methylazetidine-3-carbonitrile] it is less than 100 nM. With `[2H]C([2H])([2H])N1C(=O)c2cccc(OC(F)F)c2[C@H]2C[C@@H]1c1nc3ccc(C#CC4(C)CN(C)C4)cc3n12` [Example 155, (7R,14R)-1-(difluoromethoxy)-11-((1,3-dimethylazetidin-3-yl)ethynyl)-6-(methyl-d3)-6,7-dihydro-7,14-methanobenzo[f]benzo[4,5]imidazo[1,2-a][1,4]diazocin-5(14H)-one], the half-inhibitory concentration (IC50) is less than 100 nM.

For `[2H]C([2H])([2H])N1C(=O)c2cccc(OC(F)F)c2[C@H]2C[C@@H]1c1nc3ccc(C#CC4(C)CN(C(=O)C(C)(C)O)C4)cc3n12` [Example 156, (7R,14R)-1-(difluoromethoxy)-11-((1-(2-hydroxy-2-methylpropanoyl)-3-methylazetidin-3-yl)ethynyl)-6-(methyl-d3)-6,7-dihydro-7,14-methanobenzo[f]benzo[4,5]imidazo[1,2-a][1,4]diazocin-5(14H)-one], the IC50 is 100 to 1000 nM.

With `[2H]C([2H])([2H])N1C(=O)c2cccc(OC(F)F)c2[C@H]2C[C@@H]1c1nc3ccc(C#CC4(C)CN(C(=O)C(C)(C)C#N)C4)cc3n12` [Example 157, 3-(3-(((7R,14R)-1-(difluoromethoxy)-6-(methyl-d3)-5-oxo-5,6,7,14-tetrahydro-7,14-methanobenzo[f]benzo[4,5]imidazo[1,2-a][1,4]diazocin-11-yl)ethynyl)-3-methylazetidin-1-yl)-2,2-dimethyl-3-oxopropanenitrile], the IC50 was in the range of 100 to 1000 nM. Then `[2H]C([2H])([2H])N1C(=O)c2cccc(OC(F)F)c2[C@H]2C[C@@H]1c1nc3ccc(C#CC4(C)CNC4)cc3n12` [Example 158, (7R,14R)-1-(difluoromethoxy)-6-(methyl-d3)-11-((3-methylazetidin-3-yl)ethynyl)-6,7-dihydro-7,14-methanobenzo[f]benzo[4,5]imidazo[1,2-a][1,4]diazocin-5(14H)-one], with less than 100 nM. The figure for `[2H]C([2H])([2H])N1C(=O)c2cccc(OC(F)F)c2[C@H]2C[C@@H]1c1nc3ccc(C#CC4CC(C)(C#N)C4)cc3n12` (stereo partly drawn) [Example 159, 3-(((7R,14R)-1-(difluoromethoxy)-6-(methyl-d3)-5-oxo-5,6,7,14-tetrahydro-7,14-methanobenzo[f]benzo[4,5]imidazo[1,2-a][1,4]diazocin-11-yl)ethynyl)-1-methylcyclobutane-1-carbonitrile] is less than 100 nM; for `[2H]C([2H])([2H])N1C(=O)c2cccc(OC(F)F)c2[C@H]2C[C@@H]1c1nc3ccc(C#CCOCC(F)(F)F)cc3n12` [Example 160, (7R,14R)-1-(difluoromethoxy)-6-(methyl-d3)-11-(3-(2,2,2-trifluoroethoxy)prop-1-yn-1-yl)-6,7-dihydro-7,14-methanobenzo[f]benzo[4,5]imidazo[1,2-a][1,4]diazocin-5(14H)-one] it is less than 100 nM. The figure for `[2H]C([2H])([2H])N1C(=O)c2cccc(OC(F)F)c2[C@H]2C[C@@H]1c1nc3ccc(C#CC4(C)CN(C(=O)C5CC5)C4)cc3n12` [Example 161, (7R,14R)-11-((1-(cyclopropanecarbonyl)-3-methylazetidin-3-yl)ethynyl)-1-(difluoromethoxy)-6-(methyl-d3)-6,7-dihydro-7,14-methanobenzo[f]benzo[4,5]imidazo[1,2-a][1,4]diazocin-5(14H)-one] is less than 100 nM. Consider `[2H]C([2H])([2H])N1C(=O)c2cccc(OC(F)F)c2[C@H]2C[C@@H]1c1nc3ccc(C#CC4(C)CN(S(C)(=O)=O)C4)cc3n12` [Example 162, (7R,14R)-1-(difluoromethoxy)-6-(methyl-d3)-11-((3-methyl-1-(methylsulfonyl)azetidin-3-yl)ethynyl)-6,7-dihydro-7,14-methanobenzo[f]benzo[4,5]imidazo[1,2-a][1,4]diazocin-5(14H)-one], for which the IC50 is less than 100 nM.

Take `[2H]C([2H])([2H])N1C(=O)c2cccc(OC(F)F)c2[C@H]2C[C@@H]1c1nc3ccc(C#CCCN(C)C)cc3n12` [Example 163, (7R,14R)-1-(difluoromethoxy)-11-(4-(dimethylamino)but-1-yn-1-yl)-6-(methyl-d3)-6,7-dihydro-7,14-methanobenzo[f]benzo[4,5]imidazo[1,2-a][1,4]diazocin-5(14H)-one]: the IC50 fell in the range of 100 to 1000 nM. Then `[2H]C([2H])([2H])N1C(=O)c2cccc(OC(F)F)c2[C@H]2C[C@@H]1c1nc3ccc(C#CC4(C)CN(CCO)C4)cc3n12` [Example 164, (7R,14R)-1-(difluoromethoxy)-11-((1-(2-hydroxyethyl)-3-methylazetidin-3-yl)ethynyl)-6-(methyl-d3)-6,7-dihydro-7,14-methanobenzo[f]benzo[4,5]imidazo[1,2-a][1,4]diazocin-5(14H)-one], with 100 to 1000 nM.

For the molecule `[2H]C([2H])([2H])N1C(=O)c2cccc(OC(F)F)c2[C@H]2C[C@@H]1c1nc3ccc(C#CC4(C)CN(C(=O)C5(C)CC5)C4)cc3n12` [Example 165, (7R,14R)-1-(difluoromethoxy)-6-(methyl-d3)-11-((3-methyl-1-(1-methylcyclopropane-1-carbonyl)azetidin-3-yl)ethynyl)-6,7-dihydro-7,14-methanobenzo[f]benzo[4,5]imidazo[1,2-a][1,4]diazocin-5(14H)-one], the IC50 was in the range of 100 to 1000 nM.
